Measured values reported in patent US20130035326A1 (AMBIT BIOSCIENCES CORPORATION, priority 2009, published 2013).

Columns and labels:
KIT kinase = biological target: T1, KIT kinase (Homo sapiens, UniProt P10721); assay: Competition binding assay, KIT Kd
T1 construct: made in house; host or cells: T7 phage display or HEK-293 cells
Procedure: (§1) In certain embodiments, competition binding assays were performed as described in Fabian et al., Nature Biotechnology 2005, 23,329-336.
(§2) Competition binding assays used herein were developed, validated and performed as described in Fabian et al., Nature Biotechnology 2005, 23,329-336. Kinases were produced as fusions to T7 phage (See, Fabian et al. or WO04/015142) or alternatively, the kinases were expressed in HEK-293 cells and subsequently tagged with DNA for PCR detection (See, WO08/005,310). For the binding assays, streptavidin-coated magnetic beads were treated with biotinylated affinity ligands for 30 min at room temperature to generate affinity resins. The liganded beads were blocked with excess biotin and washed with blocking buffer (SeaBlock (Pierce), 1% BSA, 0.05% Tween 20, 1 mM DTT) to remove unbound ligand and to reduce non-specific binding. Binding reactions were assembled by combining kinase, liganded affinity beads, and test compounds in 1× binding buffer (20% SeaBlock, 0.17×PBS, 0.05% Tween 20, 6 mM DTT). Test compounds were prepared as 100× stocks in DMSO and diluted into the aqueous environment. Kds were determined using an eleven point threefold serial dilutions. DMSO or control compounds were was added to control assays lacking a test compound. Primary screen assays were performed in polypropylene 384-well plates in a final volume of 20-40 μL, while Kd determinations were performed in polystyrene 96-well plates in a final volume of 135 μL. The assay plates were incubated at room temperature with shaking for 1 hour to allow the binding reactions to reach equilibrium, and the affinity beads were washed extensively with wash buffer (1×PBS, 0.05% Tween 20) to remove unbound protein. The beads were then resuspended in elution buffer (1×PBS, 0.05% Tween 20, 0.5 μM non-biotinylated affinity ligand) and incubated at room temperature with shaking for 30 min. The kinase concentration in the eluates was measured by quantitative PCR.

CSF-1R kinase = biological target: T2, CSF-1R kinase (Homo sapiens, UniProt P07333); assay: Competition binding assay, CSF-1R Kd
T2 construct: made in house; host or cells: T7 phage display or HEK-293 cells
T2 sequence (P07333 20-972): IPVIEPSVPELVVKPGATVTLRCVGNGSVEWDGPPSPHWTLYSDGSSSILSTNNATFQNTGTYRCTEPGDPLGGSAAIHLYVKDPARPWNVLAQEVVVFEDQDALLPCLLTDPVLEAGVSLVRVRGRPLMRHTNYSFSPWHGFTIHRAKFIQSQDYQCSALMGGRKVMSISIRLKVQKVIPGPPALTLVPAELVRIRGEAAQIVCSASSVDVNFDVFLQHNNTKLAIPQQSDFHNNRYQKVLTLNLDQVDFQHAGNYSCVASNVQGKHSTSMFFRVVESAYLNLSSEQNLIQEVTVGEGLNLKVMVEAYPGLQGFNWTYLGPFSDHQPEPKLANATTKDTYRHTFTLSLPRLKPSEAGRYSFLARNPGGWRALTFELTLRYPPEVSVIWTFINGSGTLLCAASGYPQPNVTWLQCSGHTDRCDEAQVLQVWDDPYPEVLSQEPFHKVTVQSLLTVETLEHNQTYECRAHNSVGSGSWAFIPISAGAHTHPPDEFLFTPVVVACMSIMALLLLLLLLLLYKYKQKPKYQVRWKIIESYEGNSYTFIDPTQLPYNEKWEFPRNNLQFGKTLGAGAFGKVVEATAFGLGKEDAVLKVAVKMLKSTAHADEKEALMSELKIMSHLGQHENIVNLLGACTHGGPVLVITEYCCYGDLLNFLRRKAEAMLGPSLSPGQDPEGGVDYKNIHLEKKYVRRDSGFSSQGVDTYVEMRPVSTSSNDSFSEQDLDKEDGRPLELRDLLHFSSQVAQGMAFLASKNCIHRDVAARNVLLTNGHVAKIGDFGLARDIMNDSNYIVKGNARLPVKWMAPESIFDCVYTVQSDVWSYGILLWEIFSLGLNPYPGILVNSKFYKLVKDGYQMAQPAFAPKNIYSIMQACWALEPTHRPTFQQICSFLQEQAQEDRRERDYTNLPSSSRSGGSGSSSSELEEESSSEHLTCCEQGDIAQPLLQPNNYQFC
Procedure: as §1, §2

MV4-11 cells = assay: MV4-11 cell proliferation assay (Alamar Blue); type: cell-based; conditions: Homo sapiens, MV4-11, 72 h, 3 days incubation
Procedure: The compounds disclosed herein were tested in an MV4-11 cell proliferation assay to determine their cellular potency against Flt3. MV4-11 cells carry ITD mutation within juxtamembrane domain of Flt3 kinase which renders the kinase constitutively active. […] This assay measures the potency of compounds as Flt3 inhibitors by measuring the reduction of Alamar Blue reagent by viable cells.
MV4-11 cells were grown in an incubator at 37° C. under 5% CO2 in Iscove's media (Celgro) with 10% FBS. The cell density was kept between 1e5 and 8e5 cells/mL.
On day one of the experiment, cells were harvested and spun at 500 g for 5 min at 4° C., the supernatant aspirated and the cells resuspended in Iscove's media with 0.5% FBS. Cell density was maintained at 7.5e5 to achieve maximum viability of the cells. The resuspended cells were incubated at 37° C. in 5% CO2 overnight.
On day two of the experiment, cells were diluted to 6.4e5/mL with Iscove's media with 0.5% FBS. 100 μL of the cell suspension (64,000 cells) were aliquoted into each well of a 96-well TC-treated plate. Compounds were added at 9 different concentrations, with half-log intervals alongside a control reference compound serving as a positive control. Final DMSO concentration was kept at 0.5% and final volume at 200 μL. The cells were then incubated at 37° C. under 5% CO2 for 3 days.
On day five of the experiment, 40 μL of Alamar Blue reagent was added to each well and the mixture was allowed to incubate for 3 hours. Alamar Blue fluorescence was measured using SoftMax Pro software at 560 nm (excitation) and 590 nm (emission). IC50s were generated as an average of duplicates and represents the concentration of test compound that achieves 50% inhibition of cellular proliferation compared to negative control.

FLT3 kinase = biological target: T3, FLT3 kinase (Homo sapiens, UniProt P36888); assay: Competition binding assay, FLT3 Kd
T3 construct: made in house; host or cells: T7 phage display or HEK-293 cells
T3 sequence (P36888 27-993): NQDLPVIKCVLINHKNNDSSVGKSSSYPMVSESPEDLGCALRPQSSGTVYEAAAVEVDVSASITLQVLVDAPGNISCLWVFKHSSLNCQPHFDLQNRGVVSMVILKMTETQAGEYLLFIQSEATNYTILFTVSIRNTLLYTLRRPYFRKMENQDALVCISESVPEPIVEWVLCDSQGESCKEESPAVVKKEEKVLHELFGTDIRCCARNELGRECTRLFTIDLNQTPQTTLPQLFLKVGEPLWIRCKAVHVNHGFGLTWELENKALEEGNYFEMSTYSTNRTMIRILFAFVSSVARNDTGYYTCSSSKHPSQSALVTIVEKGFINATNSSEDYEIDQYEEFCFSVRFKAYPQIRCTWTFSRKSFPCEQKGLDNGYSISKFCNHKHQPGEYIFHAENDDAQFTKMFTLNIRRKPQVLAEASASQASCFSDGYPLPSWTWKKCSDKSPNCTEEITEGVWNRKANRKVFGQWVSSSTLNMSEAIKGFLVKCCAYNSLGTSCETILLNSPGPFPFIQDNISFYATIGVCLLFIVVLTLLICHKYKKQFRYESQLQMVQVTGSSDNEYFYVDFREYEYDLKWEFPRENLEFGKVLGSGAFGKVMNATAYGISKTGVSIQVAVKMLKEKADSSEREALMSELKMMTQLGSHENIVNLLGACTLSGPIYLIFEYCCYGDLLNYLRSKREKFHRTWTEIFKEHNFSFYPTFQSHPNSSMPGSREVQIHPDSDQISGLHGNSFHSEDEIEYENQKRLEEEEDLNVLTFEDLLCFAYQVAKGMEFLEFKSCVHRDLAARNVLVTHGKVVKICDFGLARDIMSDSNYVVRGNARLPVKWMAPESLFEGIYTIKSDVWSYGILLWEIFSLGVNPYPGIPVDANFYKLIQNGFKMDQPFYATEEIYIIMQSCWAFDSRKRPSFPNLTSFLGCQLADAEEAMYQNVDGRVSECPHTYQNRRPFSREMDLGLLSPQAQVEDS
Procedure: as §1, §2

T1 sequence (P10721 26-976): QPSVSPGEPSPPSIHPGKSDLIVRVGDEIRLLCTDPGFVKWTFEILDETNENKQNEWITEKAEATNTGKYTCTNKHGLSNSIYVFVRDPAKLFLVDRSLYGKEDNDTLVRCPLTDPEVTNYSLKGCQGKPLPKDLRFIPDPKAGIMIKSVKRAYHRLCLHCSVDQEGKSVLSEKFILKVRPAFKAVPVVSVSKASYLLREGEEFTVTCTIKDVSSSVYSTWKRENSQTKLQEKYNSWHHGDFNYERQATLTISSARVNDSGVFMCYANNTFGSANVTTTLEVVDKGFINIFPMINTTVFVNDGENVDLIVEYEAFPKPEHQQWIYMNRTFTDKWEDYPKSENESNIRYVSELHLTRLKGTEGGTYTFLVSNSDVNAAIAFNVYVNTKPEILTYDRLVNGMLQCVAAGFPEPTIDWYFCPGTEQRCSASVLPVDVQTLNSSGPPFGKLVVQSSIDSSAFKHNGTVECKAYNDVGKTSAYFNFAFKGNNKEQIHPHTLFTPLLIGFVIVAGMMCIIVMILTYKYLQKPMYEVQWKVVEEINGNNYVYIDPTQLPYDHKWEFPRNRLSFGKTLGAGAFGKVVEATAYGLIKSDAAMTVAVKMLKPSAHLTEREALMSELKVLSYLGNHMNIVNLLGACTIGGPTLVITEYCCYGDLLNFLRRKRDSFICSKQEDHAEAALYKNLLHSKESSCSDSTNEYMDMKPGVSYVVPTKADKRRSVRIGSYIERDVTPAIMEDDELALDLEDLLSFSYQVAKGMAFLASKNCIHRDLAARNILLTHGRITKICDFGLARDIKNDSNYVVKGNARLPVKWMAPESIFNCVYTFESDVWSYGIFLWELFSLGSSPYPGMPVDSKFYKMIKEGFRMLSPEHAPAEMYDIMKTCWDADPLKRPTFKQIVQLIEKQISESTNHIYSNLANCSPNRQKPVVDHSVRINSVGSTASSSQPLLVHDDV

Row | Kd (KIT kinase) [nM] | Kd (CSF-1R kinase) [nM] | IC50 (MV4-11 cells) [nM] | Kd (FLT3 kinase) [nM] | SMILES
1 | 1 to 10 | ≤ 10 | ≤ 1 | 1 to 10 | CC(C)(C)c1cc(NC(=O)Cc2ccc(-c3cnc(N)c(C#N)c3)cc2)no1 [Example 93, 5-(4-(2-(5-tert-butylisoxazol-3-ylamino)-2-oxoethyl)phenyl)-3-cyanopyridin-2-aminium methanesulfonate]
2 | 1 to 10 | ≤ 10 | ≤ 1 | ≤ 1 | CC(C)(C)c1cc(NC(=O)Cc2ccc(-c3cnc(N)cc3F)cc2)on1 [Example 183]
3 | 1 to 10 | ≤ 10 | ≤ 1 | 1 to 10 | CC(C)(C)c1cc(NC(=O)Nc2ccc(-c3ccc(N)nc3)cc2)on1 [Example 70, 5-(4-(3-(3-tert-butylisoxazol-5-yl)ureido)phenyl)pyridin-2-aminium methanesulfonate]
4 | 1 to 10 | ≤ 10 | ≤ 1 | ≤ 1 | CCC1(c2cc(NC(=O)Cc3ccc(-c4ccc(N)nc4)cc3)no2)CC1 [Example 171]
5 | ≤ 1 | 10 to 100 | 10 to 100 | 1 to 10 | CCN1CCCC1CNc1ccc(-c2ccc(NC(=O)Nc3cc(C(C)(C)C)on3)cc2)cn1 (stereo not shown) [Example 30, 1-(5-tert-butylisoxazol-3-yl)-3-(4-(6-((1-ethylpyrrolidin-2-yl)methylamino)pyridin-3-yl)phenyl)urea]
6 | 1 to 10 | 100 to 500 | 10 to 100 | ≤ 1 | Cc1nc(-c2ccc(CC(=O)Nc3cc(C(C)(C)C)on3)cc2)c(C)nc1N [Example 174]
7 | 1 to 10 | ≤ 10 | ≤ 1 | ≤ 1 | Cc1cc(-c2ccc(CC(=O)Nc3cc(C(C)(C)C)on3)cc2)cnc1N [Example 85, 5-(4-(2-(5-tert-butylisoxazol-3-ylamino)-2-oxoethyl)phenyl)-3-methylpyridin-2-aminium methanesulfonate]
8 | ≤ 1 | ≤ 10 | 10 to 100 | ≤ 1 | CN(C(=O)Nc1cc(C(C)(C)C)on1)c1ccc(-c2ccc(N)nc2)cc1 [Example 31, 1-(4-(6-aminopyridin-3-yl)phenyl)-3-(5-tert-butylisoxazol-3-yl)-1-methylurea]
9 | 1 to 10 | ≤ 10 | ≤ 1 | ≤ 1 | CC(C)(C)c1cc(NC(=O)Cc2ccc(-c3cnc(NCCN4CCOCC4)nc3)cc2)no1 [Example 75, N-(5-tert-butylisoxazol-3-yl)-2-(4-(2-(2-morpholinoethylamino)pyrimidin-5-yl)phenyl)acetamide]
10 | 1 to 10 | ≤ 10 | 1 to 10 | ≤ 1 | CC(C)(C)c1cc(NC(=O)Cc2ccc(-c3cnc(N)nc3)cn2)no1 [Example 77, 2-(5-(2-aminopyrimidin-5-yl)pyridin-2-yl)-N-(5-tert-butylisoxazol-3-yl)acetamide]
11 | 10 to 100 | > 500 | 100 to 500 | 1 to 10 | CC(C)(C)c1cc(NC(=O)C(N)c2ccc(-c3ccc(N)nc3)cc2)no1 (stereo not shown) [Example 173]
12 | 1 to 10 | 10 to 100 | 10 to 100 | ≤ 1 | Cc1cc(N)ncc1-c1ccc(CC(=O)Nc2cc(C(C)(C)C)on2)cc1 [Example 86, 5-(4-(2-(5-tert-butylisoxazol-3-ylamino)-2-oxoethyl)phenyl)-4-methylpyridin-2-aminium methanesulfonate]
13 | 1 to 10 | ≤ 10 | 1 to 10 | ≤ 1 | CC(C)(c1cc(NC(=O)Nc2ccc(-c3ccc(NCCN4CCOCC4)nc3)cc2)no1)C(F)(F)F [Example 39, 4-(2-(5-(4-(3-(5-(1,1,1-trifluoro-2-methylpropan-2-yl)isoxazol-3-yl)ureido)phenyl)pyridin-2-ylamino)ethyl)morpholin-4-ium methanesulfonate]
14 | 1 to 10 | 10 to 100 | 1 to 10 | ≤ 1 | CC(C)(CO)c1cc(NC(=O)Cc2ccc(-c3ccc(N)nc3)cc2)no1 [Example 88, 5-(4-(2-(5-(1-hydroxy-2-methylpropan-2-yl)isoxazol-3-ylamino)-2-oxoethyl)phenyl)pyridin-2-aminium methanesulfonate]
15 | ≤ 1 | ≤ 10 | 1 to 10 | ≤ 1 | CC(C)(F)c1cc(NC(=O)Nc2ccc(-c3ccc(N)nc3)cc2)on1 [Example 32, 5-(4-(3-(3-(2-fluoropropan-2-yl)isoxazol-5-yl)ureido)phenyl)pyridin-2-aminium methanesulfonate]
16 | ≤ 1 | ≤ 10 | 1 to 10 | ≤ 1 | Nc1ccc(-c2ccc(NC(=O)Nc3cc(C4(C(F)(F)F)CC4)on3)nc2)cn1 [Example 40, 1-(6′-amino-3,3′-bipyridin-6-yl)-3-(5-(1-(trifluoromethyl)cyclopropyl)isoxazol-3-yl)urea]
17 | 1 to 10 | ≤ 10 | ≤ 1 | – | Nc1cc(F)c(-c2ccc(CC(=O)Nc3cc(C4(C(F)(F)F)CC4)on3)cc2)cn1 [Example 189]
18 | ≤ 1 | ≤ 10 | 10 to 100 | 1 to 10 | CC(C)(F)c1cc(NC(=O)Nc2ccc(-c3ccc(N)nc3)cn2)on1 [Example 42, 1-(6′-amino-3,3′-bipyridin-6-yl)-3-(3-(2-fluoropropan-2-yl)isoxazol-5-yl)urea]
19 | 1 to 10 | ≤ 10 | ≤ 1 | ≤ 1 | CC(C)(C)c1cc(NC(=O)Cc2ccc(-c3cnc(N)nc3)cc2F)no1 [Example 79, 2-(4-(2-aminopyrimidin-5-yl)-2-fluorophenyl)-N-(5-tert-butylisoxazol-3-yl)acetamide]
20 | 1 to 10 | 10 to 100 | ≤ 1 | – | CS(=O)(=O)CCNc1ccc(-c2ccc(CC(=O)Nc3cc(C4(C(F)(F)F)CC4)on3)cc2)cn1 [Example 188]
21 | – | – | 1 to 10 | – | CC(C)(C)c1cc(NC(=O)Cc2ccc(-c3cnc4ccc(=O)[nH]c4c3)cc2)no1 [Example 191]
